The values that follow come from EP0351029B1, “Novel glucose isomerase enzymes and their use” (GENENCOR INTERNATIONAL, INC., priority 1988, dated 1990).

In experiment [1] the target is T1, Actinoplanes missouriensis glucose isomerase (EcoAmi(DSM) GI), mutant G70S;A73S;G74T (Actinoplanes missouriensis, UniProt P12851, A73S/G70S/G74T).
T1 construct: made in house; host or cells: E. coli K514 (mutated pMa5-I / pMc5-I)
The format is biochemical. The settings on record: D-xylose as substrate, coupled assay, 35°C, pH 7.5, 10mM MgSO4. The procedure: (§1) In the D-Sorbitol Dehydrogenase Coupled Assay, enzymatic determination of D-xylulose was performed at 35°C as previously described (Kersters-Hilderson et al., Enzyme Microb. Technol. 9 (1987) 145) in 50mM triethanolamine, pH 7.5, 10mM MgSO4, and 0.1 M xylose, in the presence of ± 2 x 10^-8 M D-sorbitol dehydrogenase (L-iditol : NAD oxido-reductase, EC 1.1.14), and 0.15 nM NADH, except that the incubation buffer also included 1mM ethylenebis(oxyethylene-nitrilo)tetraacetic acid (EGTA). Glucose isomerase final concentration in this assay was ± 2.5 x 10^-3 mg/ml, and precisely determined as described above.
(§2) With glucose as a substrate GI activity can be assayed by the measurement of D-fructose produced during the isomerization reaction using the cysteine-carbazole method (CCM) which is based on the reaction of ketosugars with carbazole in acids to yield a purple product (Dische and Borenfreund, 1951).
(§3) • Spa = specific activity in micromoles of product (D-xylulose or D-fructose) per minute (unit), per mg of enzyme. • Vmax is expressed in units per mg of enzyme. • KM is the Michaelis constant, expressed in mM. • ND = not determined.

Experiment [2] concerns the target T2, Actinoplanes missouriensis glucose isomerase (EcoAmi(DSM) GI), wildtype (WT-GI) (Actinoplanes missouriensis, UniProt P12851).
T2 construct: made in house; host or cells: E. coli K514 (pMa5-I / pMc5-I)
Kind of experiment: Catalytic parameters with D-xylose (D-sorbitol dehydrogenase coupled assay) or D-glucose (cysteine-carbazole method) as substrate. Conditions: 35°C, pH 7.5, 10mM MgSO4. The format is biochemical. The method, then:
as §1, §2, §3

One may read the Km as the concentration of substrate that gives half-maximal velocity.

T2 sequence (P12851 whole entry): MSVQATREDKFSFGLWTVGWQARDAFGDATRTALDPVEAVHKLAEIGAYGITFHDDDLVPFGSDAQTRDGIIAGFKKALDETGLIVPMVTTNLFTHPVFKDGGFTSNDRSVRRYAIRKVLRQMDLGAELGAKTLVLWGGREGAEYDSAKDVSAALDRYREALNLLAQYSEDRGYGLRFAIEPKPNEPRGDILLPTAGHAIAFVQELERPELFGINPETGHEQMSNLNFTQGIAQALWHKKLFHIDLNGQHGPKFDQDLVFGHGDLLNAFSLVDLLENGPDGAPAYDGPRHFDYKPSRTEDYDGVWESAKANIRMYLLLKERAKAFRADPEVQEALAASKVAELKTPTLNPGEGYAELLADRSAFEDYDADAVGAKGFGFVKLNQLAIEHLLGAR
T1 sequence (P12851 whole entry G70S/A73S/G74T): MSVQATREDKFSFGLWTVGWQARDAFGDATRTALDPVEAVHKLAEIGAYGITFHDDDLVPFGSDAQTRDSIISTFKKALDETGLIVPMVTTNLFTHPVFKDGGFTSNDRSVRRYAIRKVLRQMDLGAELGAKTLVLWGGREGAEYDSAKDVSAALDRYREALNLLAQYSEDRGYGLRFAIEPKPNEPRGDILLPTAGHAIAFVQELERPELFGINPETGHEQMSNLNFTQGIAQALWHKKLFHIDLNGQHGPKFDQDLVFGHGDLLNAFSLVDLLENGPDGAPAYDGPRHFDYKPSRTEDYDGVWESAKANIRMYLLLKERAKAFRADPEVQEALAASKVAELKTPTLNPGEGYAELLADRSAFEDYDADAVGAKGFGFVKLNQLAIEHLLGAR

As to `O=C[C@H](O)[C@@H](O)[C@H](O)CO` [Xylose, D-xylose], in experiment [1], the “Km (Xylose)” value was determined as 5.3 mM and the “Vmax (Xylose)” value was 24.9 units per mg of enzyme. Moreover, in experiment [2], the Km came out at 4.8 mM and the “Vmax (Xylose)” value is 24.2 units per mg of enzyme.
